Measurements: PubChem BioAssay (NCI)
Where “and” joins values, the source holds several entries; their conditions need not be identical. Identical values can stand only once.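 Where inhibition never reached the appropriate level, the endpoint shown equals the highest concentration tested. Otherwise, values were interpolated linearly from a five-concentration, 48-hour dose response in 96-well plates. GI50 is the concentration that inhibits growth by half. TGI: concentration producing complete growth inhibition.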

How the values were obtained:
Assay in all cases: NCI-60 cell line screen, 48 h
BT-549 breast = system: BT-549 breast
HCT-15 colon = system: HCT-15 colon
DU-145 prostate = system: DU-145 prostate
SNB-78 CNS = system: SNB-78 CNS
MCF7 breast = system: MCF7 breast
OVCAR-8 ovarian = system: OVCAR-8 ovarian
HOP-18 NSCLC = system: HOP-18 NSCLC
RPMI-8226 leukemia = system: RPMI-8226 leukemia
DLD-1 colon = system: DLD-1 colon
LOX IMVI melanoma = system: LOX IMVI melanoma
MDA-N = system: MDA-N
SK-MEL-28 melanoma = system: SK-MEL-28 melanoma
KM20L2 colon = system: KM20L2 colon
NCI-H460 lung = system: NCI-H460 lung
A549 NSCLC = system: A549 NSCLC
SR leukemia = system: SR leukemia
M14 melanoma = system: M14 melanoma

Compound: CN1C(=O)CC2(C)c3cc(O)ccc3N(C)C12 (configuration not stated)
- GI50 (BT-549 breast): 30.3 µM
- TGI (BT-549 breast): 75 µM and 30.8 µM
- GI50 (HCT-15 colon): 14.3 µM
- TGI (HCT-15 colon): 25.9 µM and 41.9 µM
- GI50 (DU-145 prostate): > 75 µM
- TGI (DU-145 prostate): > 75 µM
- TGI (SNB-78 CNS): > 100 µM
- GI50 (MCF7 breast): 14 µM
- TGI (MCF7 breast): 27.8 µM and 35.8 µM
- TGI (OVCAR-8 ovarian): 61.4 µM
- TGI (HOP-18 NSCLC): > 100 µM
- GI50 (RPMI-8226 leukemia): 20.3 µM
- TGI (RPMI-8226 leukemia): 64.8 µM and 67.3 µM
- TGI (DLD-1 colon): > 100 µM
- GI50 (LOX IMVI melanoma): 14.8 µM
- TGI (LOX IMVI melanoma): 38.9 µM and 32.6 µM
- GI50 (MDA-N): 12.9 µM
- TGI (MDA-N): 25.7 µM and 31.7 µM
- GI50 (SK-MEL-28 melanoma): 11.8 µM
- TGI (SK-MEL-28 melanoma): 21.9 µM and > 79.2 µM
- TGI (KM20L2 colon): > 100 µM
- GI50 (NCI-H460 lung): 13.9 µM
- TGI (NCI-H460 lung): 26 µM and > 82.3 µM
- TGI (A549 NSCLC): 75 µM and > 100 µM
- GI50 (SR leukemia): 13.9 µM
- TGI (SR leukemia): 45.2 µM and 51.5 µM
- TGI (M14 melanoma): 44.6 µM
